Experimental data as given in patent US8940310B2, “Methods of treatment using TLR7 and/or TLR9 inhibitors” (Dynavax Technologies Corporation, priority 2010, dated 2015).
Marks after values point to notes of the source that are not given here.

Columns and labels:
[1] = Monomer and tetramer formation of IRPs, size-exclusion HPLC; format: physicochemical; details: 100 mg/mL in PBS and 0.5M KCl, room temperature, three weeks
Method: Solutions were prepared of the by mixing 100 mg/mL of the IRP sequences in PBS and 0.5M KCl and storing at room temperature for three to five weeks. The solutions were subsequently analyzed by size-exclusion HPLC.

[2] = High dosages of IRPs in rats (weight, deaths, histology); format: in vivo, Sprague Dawley rats; details: rat; for Heart: Cell Vacuolation, number of animals / Heart: Hemorrhage, number of animals / Heart: Mononuclear Cell Infiltration, number of animals / Heart: Necrosis, number of animals / Heart: No significant changes, number of animals / Liver: Liver changes, number of animals / Liver: Mixed cell infiltration, number of animals / Liver: Necrosis, number of animals / Liver: No significant changes, number of animals / Liver: Vacuolation, number of animals / Right Kidney: Hydronephrosis, number of animals / Right Kidney: Mineralization, number of animals / Right Kidney: Necrosis, number of animals / Right Kidney: No significant changes, number of animals / Right Kidney: Tubular basophilia, number of animals / Right Kidney: Tubular changes, number of animals: 6 animals
Method: To test the activity of IRPs at high dosages in rats, IRPs (SEQ ID NO:42 and SEQ ID NO:109) or a control (PBS) were subcutaneously administered to 8-9 weeks old, […], 3, 6, and 9 (n=6 per group). Rats were weighed prior to administration and on days 1, 3, 4, 6, 7, and 9. Organs were harvested at the end of the study, and organ weights and tissues levels of the oligonucleotides were determined. In addition, histolocial evaluation of the liver, kidney, and heart was performed.
Rats were weighed prior to administration and on days 1, 3, 6, 7, and 9. Organs were harvested at the end of the study, and organ weights and tissues levels of the oligonucleotides were determined. In addition, histological evaluation of the liver, kidney, and heart was performed.

[3] = High dosages of IRPs in mice (weight, histology); format: in vivo, BALB/c mice; details: for Liver: Liver changes, number of animals / Liver: Mixed cell infiltration, number of animals / Liver: No significan changes, number of animals / Right Kidney: No significant changes, number of animals / Right Kidney: Tubular basophilia, number of animals / Right Kidney: Tubular changes, number of animals: 6 animals; for Heart: No significant changes, number of animals: tissue missing in two animals
Method: To test the activity of IRPs at high dosages in mice, IRPs or a control (saline) were subcutaneously administered to BALB/c mice at a dosage of 4 mg/kg, 20 mg/kg, 50 mg/kg, or 100 mg/kg on days 1, 4, 7, and 10 (n=5 per group). Mice were weighed prior to administration and on days 2, 4, 7, 9, and 11. Serum cytokines were assayed at two hours post the first and third injections and 24 hours post the fourth injection. Organs were harvested at the end of the study, and organ weights and tissues levels of the oligonucleotides were determined. In addition, histological evaluation of the liver, kidney, and heart was performed.
Mice were weighed prior to administration and on days 1, 3, 4, 6, 7, and 9. Organs were harvested at the end of the study, and organ weights and tissues levels of the oligonucleotides were determined. In addition, histological evaluation of the liver, kidney, and heart was performed.

[4] = tested on: human B-cells; test: Human B-cells cultured in the presence of IRPs, IL-6
Method: For the human B-cell assay, B-cells were purified from total blood cells obtained from healthy donors using magnetic beads (CD19 positive). Cells were resuspended in fresh medium (RPMI 1640 with 10% fetal calf serum, 50 units/mL penicillin, 50 μg/mL streptomycin, and 2 mM glutamine). At 48 hours, supernatants were collected and cytokine levels, IL-6, were measured using immunoassay.
To further investigate the effect of IRPs on B-cell stimulatory activity, a wide variety of IRP sequences were assayed for IL-6, along with positive and negative controls. The experiment was performed as described in Example 1 using doses of IRP of either 4.0 μM or 2.0 μM. The positive control was an immunostimulatory sequence (ISS) with SEQ ID NO:157. […] The results are presented as the average normalized IL-6 response over several experiments.

[5] = 10 mg/kg, 0 = no change to 4 = severe
[6] = 90 mg/kg, 0 = no change to 4 = severe
[7] = 50 mg/kg, 0 = no change to 4 = severe
[8] = 100 mg/kg, 0 = no change to 4 = severe

5′-TGCTCCTGGAGGGGTTGT-3′ (DNA, backbone not given here) [SEQ ID NO:42]
fraction in monomer form [1]: 54.01% | fraction in tetramer form [1]: 45.99% | organ weight of the liver, heart, kidney, or spleen ([2]; 10 mg/kg or 100 mg/kg SC days 0, 3, 6, 9): no significant difference | Heart: Cell Vacuolation, number of animals ([2]; 10 mg/kg): 0 | Heart: Hemorrhage, number of animals ([2]; 10 mg/kg): 0 | Heart: Mononuclear Cell Infiltration, number of animals ([2]; 10 mg/kg): 1 | Heart: Necrosis, number of animals ([2]; 10 mg/kg): 0 | Heart: No significant changes, number of animals ([2]; 10 mg/kg): 5 | Liver: Liver changes, number of animals ([2]; 10 mg/kg): 1 | Liver: Mixed cell infiltration, number of animals ([2]; 10 mg/kg): 2 | Liver: Necrosis, number of animals ([2]; 10 mg/kg): 0 | Liver: No significant changes, number of animals ([2]; 10 mg/kg): 3 | Liver: Vacuolation, number of animals ([2]; 10 mg/kg): 0 | Right Kidney: Hydronephrosis, number of animals ([2]; 10 mg/kg): 0 | Right Kidney: Mineralization, number of animals ([2]; 10 mg/kg): 3 | Right Kidney: Necrosis, number of animals ([2]; 10 mg/kg): 0 | Right Kidney: No significant changes, number of animals ([2]; 10 mg/kg): 0 | Right Kidney: Tubular basophilia, number of animals ([2]; 10 mg/kg): 0 | Right Kidney: Tubular changes, number of animals ([2]; 10 mg/kg): 6 | Heart: Mononuclear Cell Infiltration, mean severity score [2, 5]: 2.0 | Liver: Liver changes, mean severity score [2, 5]: 1.0 | Liver: Mixed cell infiltration, mean severity score [2, 5]: 1.5 | Right Kidney: Mineralization, mean severity score [2, 5]: 2.0 | Right Kidney: Tubular changes, mean severity score [2, 5]: 1.0 | Kidney: tubular basophilia ([2]; 90 mg/kg): occurred | Liver: hepatocellular necrosis ([2]; 90 mg/kg): hepatocellular necrosis | Heart: Cell Vacuolation, number of animals ([2]; 90 mg/kg): 0 | Heart: Hemorrhage, number of animals ([2]; 90 mg/kg): 0 | Heart: Mononuclear Cell Infiltration, number of animals ([2]; 90 mg/kg): 0 | Heart: Necrosis, number of animals ([2]; 90 mg/kg): 0 | Heart: No significant changes, number of animals ([2]; 90 mg/kg): 6 | Liver: Liver changes, number of animals ([2]; 90 mg/kg): 6 | Liver: Mixed cell infiltration, number of animals ([2]; 90 mg/kg): 4 | Liver: Necrosis, number of animals ([2]; 90 mg/kg): 1 | Liver: No significant changes, number of animals ([2]; 90 mg/kg): 0 | Liver: Vacuolation, number of animals ([2]; 90 mg/kg): 0 | Right Kidney: Hydronephrosis, number of animals ([2]; 90 mg/kg): 0 | Right Kidney: Mineralization, number of animals ([2]; 90 mg/kg): 1 | Right Kidney: Necrosis, number of animals ([2]; 90 mg/kg): 0 | Right Kidney: No significant changes, number of animals ([2]; 90 mg/kg): 0 | Right Kidney: Tubular basophilia, number of animals ([2]; 90 mg/kg): 4 | Right Kidney: Tubular changes, number of animals ([2]; 90 mg/kg): 6 | Liver: Liver changes, mean severity score [2, 6]: 2.3 | Liver: Mixed cell infiltration, mean severity score [2, 6]: 2.1 | Liver: Necrosis, mean severity score [2, 6]: 3.5 | Right Kidney: Mineralization, mean severity score [2, 6]: 1.0 | Right Kidney: Tubular basophilia, mean severity score [2, 6]: 1.5 | Right Kidney: Tubular changes, mean severity score [2, 6]: 2.0 | Heart: Chronic inflammation, number of animals ([3]; 50 mg/kg): 1 | Heart: Mineralization, number of animals ([3]; 50 mg/kg): 1 | Heart: Chronic inflammation, mean severity score [3, 7]: 2.0 | Heart: Mineralization, mean severity score [3, 7]: 3.0 | Liver: Liver changes, mean severity score [3, 7]: 1.0 | Liver: Mixed cell infiltration, mean severity score [3, 7]: 1.8 | Right Kidney: Tubular changes, mean severity score [3, 7]: 1.0 | Liver: Liver changes, number of animals ([3]; 50 mg/kg): 5 | Liver: Mixed cell infiltration, number of animals ([3]; 50 mg/kg): 4 | Liver: No significan changes, number of animals ([3]; 50 mg/kg): 0 | Right Kidney: No significant changes, number of animals ([3]; 50 mg/kg): 1 | Right Kidney: Tubular basophilia, number of animals ([3]; 50 mg/kg): 0 | Right Kidney: Tubular changes, number of animals ([3]; 50 mg/kg): 5 | Heart: No significant changes, number of animals ([3]; 50 mg/kg): 2** | Heart: Chronic inflammation, number of animals ([3]; 100 mg/kg): 0 | Heart: Mineralization, number of animals ([3]; 100 mg/kg): 1 | weight loss as % gain versus pre-dose ([3]; 100 mg/kg SC days 1, 4, 7, 10): but not SEQ ID NO:42 provoked weight loss | Heart: Mineralization, mean severity score [3, 8]: 2.0 | Liver: Liver changes, mean severity score [3, 8]: 1.8 | Liver: Mixed cell infiltration, mean severity score [3, 8]: 2.0 | Right Kidney: Tubular changes, mean severity score [3, 8]: 1.0 | Liver: Liver changes, number of animals ([3]; 100 mg/kg): 6 | Liver: Mixed cell infiltration, number of animals ([3]; 100 mg/kg): 4 | Liver: No significan changes, number of animals ([3]; 100 mg/kg): 0 | Right Kidney: No significant changes, number of animals ([3]; 100 mg/kg): 0 | Right Kidney: Tubular basophilia, number of animals ([3]; 100 mg/kg): 0 | Right Kidney: Tubular changes, number of animals ([3]; 100 mg/kg): 6 | Heart: No significant changes, number of animals ([3]; 100 mg/kg): 3** | Normalized IL-6 Response (Percentage of Positive Control) ([4]; Experiment # 1, Max Conc 4.0 uM): 13% | Normalized IL-6 Response (Percentage of Positive Control) ([4]; Experiment # 2, Max Conc 4.0 uM): 14% | Normalized IL-6 Response (Percentage of Positive Control) ([4]; Experiment # 3, Max Conc 4.0 uM): 5% | Normalized IL-6 Response (Percentage of Positive Control) ([4]; Experiment # 4, Max Conc 4.0 uM): 9% | Normalized IL-6 Response (Percentage of Positive Control) ([4]; Experiment # 5, Max Conc 4.0 uM): 10% | Normalized IL-6 Response (Percentage of Positive Control) ([4]; Experiment # 6, Max Conc 4.0 uM): 6% | Normalized IL-6 Response (Percentage of Positive Control) ([4]; Experiment # 7, Max Conc 4.0 uM): 9% | Normalized IL-6 Response (Percentage of Positive Control) ([4]; Experiment # 8, Max Conc 2.0 uM): 8% | Normalized IL-6 Response (Percentage of Positive Control) ([4]; Experiment # 9, Max Conc 2.0 uM): 6% | Normalized IL-6 Response (Percentage of Positive Control) ([4]; Experiment # 10, Max Conc 2.0 uM): 18% | Normalized IL-6 Response (Percentage of Positive Control) ([4]; Experiment # 11, Max Conc 2.0 uM): 10% | B-cell response as evidenced by IL-6 produced ([4]; human B-cells with IRP alone, 48 hours, FIGS. 1A-B): did not induce any B-cell response
